In brackets after ≈: the same amount, converted by molar mass.
Assays:
human A549 cells = experiment: WST-1 cytotoxicity assay; type: cell-based; details: compared at 44 μM, 4 hours at 37° C.
Description: The cytotoxicity of the silver-containing species were tested against human A549 cells (from the lungs) using the WST-1 Assay (manufactured by Roche). The silver-bearing species were diluted to different extents and allowed to incubate with the human cells at 37° C. for 4 hours. In the presence of dead cells, the enzymatic assay gave a pink coloured solution (as shown by the box in FIG. 4A), while the living cells gave a brown solution (cells that are outside the box region in FIG. 4A).
The percentage of human dead cells can be quantified spectroscopically by measuring the optical density of the solution at a wavelength of 440 nm. To examine the antimicrobial potency and cytotoxicity of silver in different formulations (AgNPs, DNA-templated AgNCs and AgNO3), the percentage of bacteria cells inhibited (y-axis representing the antibacterial potency) was plotted against the percentage of human A549 cells killed (x-axis representing the eukaryotic cytotoxicity) in FIG. 4B. Here, the relative percentages of human A549 cells killed were compared at a concentration of 44 μM for all silver-containing species.

[1] = tested on: multidrug-resistant bacteria P. aeruginosa; experiment: Inhibition of P. aeruginosa growth in solution culture; type: cell-based, Pseudomonas aeruginosa; details: overnight at 37° C., shaking 250 rpm; AgNO3 180 μM
Description: Other than DNA-based surface chemistry, the size-dependent controlled-release of Ag^+ from the DNA-templated AgNCs (sub-2nm) were also compared with the citrate-capped silver nanoparticles (AgNPs, 15 nm) and AgNO3 (free flow of Ag^+) against bacterial growth under the same experimental conditions. AgNPs were synthesized based on the Turkevich method whereby an aqueous solution of trisodium citrate was brought to boil, followed by addition of AgNO3 aq solution (310 μM). The reaction was then boiled till a yellow solution was obtained. For the AgNO3, 180 μM of AgNO3 was used for this example.

P. aeruginosa = details: J. Antimicrob. Chemother., 1999, 43, 345-349; cited from earlier work
B. cenocepacia = details: J. Antimicrob. Chemother., 2002, 50, 265-269; cited from earlier work

SMILES	cytotoxicity to human A549 cells (human A549 cells)	P. aeruginosa growth inhibited [1]	MIC50 (P. aeruginosa)	MIC50 (B. cenocepacia)
O=[N+]([O-])[O-].[Ag+] [AgNO3]	high toxicity	up to 97%	–	–
O=C(O)c1cn(C2CC2)c2cc(N3CCNCC3)c(F)cc2c1=O [ciprofloxacin]	–	–	0.27 µM (≈ 0.0895 µg/mL)	0.36 µM (≈ 0.119 µg/mL)

— patent publication US20150110845A1, “ANTIMICROBIAL POLYNUCLEOTIDE-TEMPLATED METAL NANOCLUSTER” (priority 2013, published 2015)
